MIC data for eight compounds are collected here from patent US9334289B2, “Cephem compound having catechol or pseudo-catechol structure” (SHIONOGI & CO., LTD., priority 2011, dated 2016).

Converted amounts (≈) assume the structure as drawn.

Holding throughout (assay): MIC, CLSI broth microdilution, Test Example 2
What all share (type): cell-based

One experiment relates to A. baumannii SR01331. Conditions: Acinetobacter baumannii, SR01331; PER-1, OXA-23.51 ESBL- & OXA-type carbapenemase producing strain; cation-adjusted Iso-Sensitest broth containing human Apo-transferrin; 5×10^5 cfu/mL; read-out: Minimum Inhibitory Concentration (MIC) A. baumannii SR01331. As to the method: (§1) Measurement of Minimum Inhibitory Concentration (MIC: μg/mL) was conducted according to CLSI (Clinical and Laboratory Standards Institute) method, and the amount of bacteria for inoculation was 5×10^5 cfu/mL, and cation-adjusted Iso-Sensitest broth containing human Apo-transferrin was used as a test medium, and the experiment was conducted using broth microdilution method.

The next experiment concerns E. cloacae NCTC13464. Conditions: Enterobacter cloacae, NCTC13464; CTX-M group 9 ESBL producing strain; cation-adjusted Iso-Sensitest broth containing human Apo-transferrin; 5×10^5 cfu/mL; read-out: Minimum Inhibitory Concentration (MIC) E. cloacae NCTC 13464. As to the method:
as §1

The test system of the next experiment is E. coli ATCCBAA-196. Conditions: Escherichia coli, ATCCBAA196; TEM-10 ESBL producing strain; cation-adjusted Iso-Sensitest broth containing human Apo-transferrin; 5×10^5 cfu/mL; read-out: Minimum Inhibitory Concentration (MIC) E. coli ATCC BAA-196. As to the method:
as §1

The test system of another experiment is E. coli ATCCBAA-200. Conditions: Escherichia coli, ATCCBAA200; SHV-4 ESBL producing strain; cation-adjusted Iso-Sensitest broth containing human Apo-transferrin; 5×10^5 cfu/mL; read-out: Minimum Inhibitory Concentration (MIC) E. coli ATCC BAA-200. As to the method:
as §1

For a further experiment, the system named is E. coli SR01337. Conditions: Escherichia coli, SR01337; TEM-1 ESBL producing strain; cation-adjusted Iso-Sensitest broth containing human Apo-transferrin; 5×10^5 cfu/mL; read-out: Minimum Inhibitory Concentration (MIC) E. coli SR01337. As to the method: as §1
In another experiment the test system is K. pneumoniae ATCC700603. Conditions: Klebsiella pneumoniae, ATCC700603; SHV18 ESBL producing strain; cation-adjusted Iso-Sensitest broth containing human Apo-transferrin; 5×10^5 cfu/mL; read-out: Minimum Inhibitory Concentration (MIC) K. pneumoniae ATCC 700603. As to the method:
as §1

The subject of another experiment is P. aeruginosa SR01332. Conditions: Pseudomonas aeruginosa, SR01332; VIM-11 MBL producing strain (carbapenem resistance strain); cation-adjusted Iso-Sensitest broth containing human Apo-transferrin; 5×10^5 cfu/mL; read-out: Minimum Inhibitory Concentration (MIC) P. aeruginosa SR01332. As to the method: as §1
The test system of the next experiment is P. aeruginosa SR01335. Conditions: Pseudomonas aeruginosa, SR01335; VIM-1 like MBL producing strain (carbapenem resistance strain); cation-adjusted Iso-Sensitest broth containing human Apo-transferrin; 5×10^5 cfu/mL; read-out: Minimum Inhibitory Concentration (MIC) P. aeruginosa SR01335. As to the method:
as §1

Consider `Nc1nc(/C(=N/O[C@@H](CC(=O)[O-])C(=O)[O-])C(=O)N[C@@H]2C(=O)N3C(c4nnn[n-]4)=C(C[n+]4ccc5cc(O)c(O)cc5c4)CS[C@H]23)cs1.[Na+].[Na+]` [Compound I-65], for which the MIC in the experiment with A. baumannii SR01331 is 0.125 µg/mL; in the experiment with E. cloacae NCTC13464, ≤ 0.031 µg/mL; with E. coli ATCCBAA-196, ≤ 0.031 µg/mL; in the experiment with E. coli ATCCBAA-200, ≤ 0.031 µg/mL; in the experiment on E. coli SR01337 it was ≤ 0.031 µg/mL; in the experiment with K. pneumoniae ATCC700603, ≤ 0.031 µg/mL. Further, the MIC with P. aeruginosa SR01332 came out at 0.25 µg/mL; with P. aeruginosa SR01335 it was 0.5 µg/mL.

With `Cc1cc2cc(O)c(O)cc2c[n+]1CC1=C(c2nnn[nH]2)N2C(=O)[C@@H](NC(=O)/C(=N\OC(C)(C)C(=O)O)c3nsc(N)n3)[C@H]2SC1.[Na+]` [Compound I-109], the MIC was 0.5 µg/mL in the experiment on A. baumannii SR01331; 0.125 µg/mL in the experiment with E. cloacae NCTC13464; 0.5 µg/mL in the experiment on E. coli ATCCBAA-196; 1 µg/mL in the experiment with E. coli ATCCBAA-200; ≤ 0.031 µg/mL in the experiment with E. coli SR01337; 0.25 µg/mL with K. pneumoniae ATCC700603. In addition, the MIC in the experiment on P. aeruginosa SR01332 was determined as 0.5 µg/mL; in the experiment with P. aeruginosa SR01335, 1 µg/mL.

As to `Cc1cc2cc(O)c(O)cc2c[n+]1CC1=C(c2nnn[n-]2)N2C(=O)[C@@H](NC(=O)/C(=N\OC(C)(C)C(=O)[O-])c3csc(N)n3)[C@H]2SC1.[Na+]` [Compound I-121], the MIC in the experiment on A. baumannii SR01331 was 0.125 µg/mL; in the experiment on E. cloacae NCTC13464 it was 0.063 µg/mL; in the experiment on E. coli ATCCBAA-196, ≤ 0.031 µg/mL; in the experiment with E. coli ATCCBAA-200, ≤ 0.031 µg/mL; with E. coli SR01337 it was ≤ 0.031 µg/mL; in the experiment with K. pneumoniae ATCC700603, ≤ 0.031 µg/mL. Besides, the MIC in the experiment with P. aeruginosa SR01332 turned out to be 1 µg/mL; with P. aeruginosa SR01335, 0.5 µg/mL.

Turning to `Nc1nc(/C(=N/O[C@@H](CC(=O)O)C(=O)[O-])C(=O)N[C@@H]2C(=O)N3C(c4nnn[nH]4)=C(C[N+]4(CCNC(=O)c5ccc(O)c(O)c5F)CCCC4)CS[C@H]23)c(Cl)s1` [Compound I-103], the MIC was 0.25 µg/mL (≈ 0.303 µM) in the experiment on A. baumannii SR01331; 0.125 µg/mL (≈ 0.152 µM) in the experiment with E. cloacae NCTC13464; ≤ 0.031 µg/mL in the experiment on E. coli ATCCBAA-196; 0.125 µg/mL (≈ 0.152 µM) in the experiment with E. coli ATCCBAA-200; ≤ 0.031 µg/mL in the experiment with E. coli SR01337; 0.5 µg/mL (≈ 0.607 µM) in the experiment on K. pneumoniae ATCC700603. Moreover, the figures for the MIC in the experiment with P. aeruginosa SR01332 and with P. aeruginosa SR01335 were 2 µg/mL (≈ 2.43 µM) and 1 µg/mL (≈ 1.21 µM), respectively.

For `CC(C)(O/N=C(\C(=O)N[C@@H]1C(=O)N2C(c3nnn[nH]3)=C(C[N+]3(CCNC(=O)c4ccc(O)c(O)c4Cl)CCCCC3)CS[C@H]12)c1nsc(N)n1)C(=O)[O-]` [Compound I-118], the MIC was 0.25 µg/mL (≈ 0.316 µM) in the experiment on A. baumannii SR01331; 0.25 µg/mL (≈ 0.316 µM) in the experiment on E. cloacae NCTC13464; 0.25 µg/mL (≈ 0.316 µM) with E. coli ATCCBAA-196; 0.25 µg/mL (≈ 0.316 µM) in the experiment with E. coli ATCCBAA-200; ≤ 0.031 µg/mL in the experiment with E. coli SR01337; 0.063 µg/mL (≈ 0.0796 µM) with K. pneumoniae ATCC700603. For the same compound, the MIC is 8 µg/mL (≈ 10.1 µM) in the experiment on P. aeruginosa SR01332 and 1 µg/mL (≈ 1.26 µM) with P. aeruginosa SR01335.

For `CC(C)(O/N=C(\C(=O)N[C@@H]1C(=O)N2C(c3nnn[n-]3)=C(C[n+]3ccc4cc(O)c(O)cc4c3)CS[C@H]12)c1nc(N)sc1Cl)C(=O)[O-].[Na+]` [Compound I-37], the MIC in the experiment on A. baumannii SR01331 was 0.25 µg/mL; in the experiment on E. cloacae NCTC13464 it was ≤ 0.031 µg/mL; with E. coli ATCCBAA-196, ≤ 0.031 µg/mL; in the experiment with E. coli ATCCBAA-200, 0.063 µg/mL; in the experiment with E. coli SR01337 it was ≤ 0.031 µg/mL; in the experiment on K. pneumoniae ATCC700603, 0.063 µg/mL. For the same compound, the MIC with P. aeruginosa SR01332 was determined as 0.25 µg/mL; in the experiment on P. aeruginosa SR01335 it was 0.5 µg/mL.

Turning to `Nc1nc(/C(=N/O[C@@H](CC(=O)O)C(=O)[O-])C(=O)N[C@@H]2C(=O)N3C(c4nnn[nH]4)=C(C[N+]4(CCNC(=O)c5cc(O)c(O)c(F)c5)CCCC4)CS[C@H]23)cs1` [Compound I-99], the MIC in the experiment with A. baumannii SR01331 is 0.5 µg/mL (≈ 0.633 µM); in the experiment with E. cloacae NCTC13464, 0.125 µg/mL (≈ 0.158 µM); in the experiment with E. coli ATCCBAA-196, ≤ 0.031 µg/mL; in the experiment with E. coli ATCCBAA-200 it was 0.063 µg/mL (≈ 0.0798 µM); in the experiment with E. coli SR01337, ≤ 0.031 µg/mL; with K. pneumoniae ATCC700603, 0.063 µg/mL (≈ 0.0798 µM). Moreover, the MIC with P. aeruginosa SR01332 turned out to be 4 µg/mL (≈ 5.06 µM); in the experiment with P. aeruginosa SR01335, 2 µg/mL (≈ 2.53 µM).

On to `CC(C)(O/N=C(\C(=O)N[C@@H]1C(=O)N2C(c3nnn[n-]3)=C(C[n+]3ccc(NC(=O)c4ccc(O)c(O)c4Cl)cc3)CS[C@H]12)c1nsc(N)n1)C(=O)[O-].[Na+]` [Compound I-116], for which the MIC in the experiment on A. baumannii SR01331 was 0.25 µg/mL; in the experiment on E. cloacae NCTC13464, ≤ 0.031 µg/mL; with E. coli ATCCBAA-196, 0.5 µg/mL; in the experiment on E. coli ATCCBAA-200 it was 1 µg/mL; with E. coli SR01337, ≤ 0.031 µg/mL; in the experiment with K. pneumoniae ATCC700603 it was 0.25 µg/mL. Moreover, the figures for the MIC with P. aeruginosa SR01332 and in the experiment on P. aeruginosa SR01335 were 2 µg/mL and 1 µg/mL, respectively.
